The values that follow come from article PMC9306553 (Angewandte Chemie (International Ed. in English), 2022).

For assay [1], the target named is T1, CCR9 (Homo sapiens, UniProt P51686).
T1 sequence (P51686 1-357 isoform P51686-2): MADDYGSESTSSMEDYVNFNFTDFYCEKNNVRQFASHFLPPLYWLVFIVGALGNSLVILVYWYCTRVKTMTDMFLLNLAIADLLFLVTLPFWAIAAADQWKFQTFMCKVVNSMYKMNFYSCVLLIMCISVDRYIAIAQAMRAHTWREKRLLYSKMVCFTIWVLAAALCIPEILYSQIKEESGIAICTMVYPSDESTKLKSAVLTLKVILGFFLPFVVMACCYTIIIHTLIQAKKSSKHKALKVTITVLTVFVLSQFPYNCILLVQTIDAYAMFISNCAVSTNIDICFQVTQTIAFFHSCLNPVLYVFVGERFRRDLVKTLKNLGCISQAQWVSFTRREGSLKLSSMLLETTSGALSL
In words: biochemical. It is filed as binding. The note with it: CCR9_Nluc membranes; for Ki: tracer 3a 100 nM.

Assay [2] concerns the target T1, CCR9. In words: cell-based. The settings on record: tracer 3a 120 nM, live HEK293T cells expressing CCR9_Nluc.
Assay [3] has as its target T1, CCR9. In words: cell-based. The note with it: HEK293T cells, stimulated with CCL25 31.6 nM.
Assay [4] concerns the target T2, CCR9 (Homo sapiens, UniProt P51686).
T2 sequence (P51686 1-369): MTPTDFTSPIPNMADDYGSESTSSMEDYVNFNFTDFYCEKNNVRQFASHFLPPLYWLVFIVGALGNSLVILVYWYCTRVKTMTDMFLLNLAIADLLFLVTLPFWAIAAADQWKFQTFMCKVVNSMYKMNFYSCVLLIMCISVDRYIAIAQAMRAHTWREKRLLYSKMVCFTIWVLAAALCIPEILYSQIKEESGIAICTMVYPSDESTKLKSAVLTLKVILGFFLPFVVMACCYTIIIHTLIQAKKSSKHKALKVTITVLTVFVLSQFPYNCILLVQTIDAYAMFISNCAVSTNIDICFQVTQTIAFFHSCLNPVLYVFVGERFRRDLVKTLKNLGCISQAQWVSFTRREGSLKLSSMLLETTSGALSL
As to the kind of experiment: cell-based. The note with it: for IC50: IC50 β-arrestin2 recruitment, HEK293T cells, stimulated with CCL25 31.6 nM. The format is cell-based. For orientation: Activated receptors often draw arrestin, which recruitment assays turn into a signal.

Assay [5] has as its target T1, CCR9. It is filed as cell-based. The settings on record: for effect on the CCR9 degradation by 13 (ELISA): co-treatment with 13, HEK293T cells transiently expressing CCR9. In general terms: ELISA stands for enzyme-linked immunosorbent assay.
Assay [6] addresses T3, CCR2 (Homo sapiens, UniProt P41597).
T3 sequence (P41597 1-360 isoform P41597-2): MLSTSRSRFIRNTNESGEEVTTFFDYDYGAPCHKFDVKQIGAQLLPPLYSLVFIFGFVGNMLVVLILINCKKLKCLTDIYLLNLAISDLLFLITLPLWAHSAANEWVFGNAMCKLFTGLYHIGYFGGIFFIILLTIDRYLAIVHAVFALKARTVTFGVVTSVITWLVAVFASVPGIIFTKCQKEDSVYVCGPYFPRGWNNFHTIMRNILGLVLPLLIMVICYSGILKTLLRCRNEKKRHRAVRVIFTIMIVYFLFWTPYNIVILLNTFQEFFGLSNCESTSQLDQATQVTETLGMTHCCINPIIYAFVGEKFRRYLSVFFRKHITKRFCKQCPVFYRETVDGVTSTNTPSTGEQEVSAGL
In words: BRET-based G protein activation assay, CCR2. The format is cell-based. The settings on record: stimulated with CCL2 10 nM. A general note: BRET reads energy transfer from a luciferase to a nearby fluorophore.

Setting [7] is: pKi NanoBRET (membranes), mean±SEM.
Where [8] appears, read: pKi NanoBRET (in cells), mean±SEM.

One may read the Ki as the dissociation constant of the complex between target and ligand, obtained from inhibition or displacement. For orientation: IC50 means the concentration at which inhibition is half-maximal. Higher therefore signals a need for much substance.

As to `CC(C)(C)c1ccc(S(=O)(=O)Nc2ccc(Cl)cc2-c2nccnc2N)cc1` [compound 10], the Ki is 3.51 nM in assay [1] (Ki NanoBRET (membranes)), 3.24 nM in assay [1] (setting [7]), 11.5 nM in assay [2] (Ki NanoBRET (in cells)) and 10.5 nM in assay [2] (setting [8]). Further, the IC50 in assay [3] (IC50 Gαo activation) is 14.9 nM; in assay [3] (pIC50 Gαo activation, mean±SEM), 14.8 nM; in assay [4], 17.4 nM.
As to `NS(=O)(=O)OC[C@@H]1C[C@@H](n2ccc3c(N[C@H]4CCc5ccccc54)ncnc32)C[C@@H]1O` [MLN4924], the “effect on the CCR9 degradation by 13 (ELISA)” value in assay [5] was “can be reduced”.
Take `Cc1ncsc1-c1ccc(CNC(=O)[C@@H]2C[C@@H](O)CN2C(=O)[C@@H](N)C(C)(C)C)cc1` [(S,R,S)‐AHPC]: in assay [5] (HEK293T cells transiently expressing CCR9, 14 h treatment), the “effect on CCR9 levels (ELISA)” value is reported as “did not result in reduction of CCR9 levels”. The “effect on the CCR9 degradation by 13 (ELISA)” value in assay [5] is recorded as “can be counteracted”.
For `CC(C)(C)c1ccc(S(=O)(=O)Nc2ccc(Cl)cc2-c2cccnc2N)cc1` [compound 11], the Ki in assay [1] (Ki NanoBRET (membranes)) was 13 nM; in assay [1] (setting [7]) it was 12.3 nM; in assay [2] (Ki NanoBRET (in cells)), 20.5 nM; in assay [2] (setting [8]), 19.1 nM. The half-maximal inhibitory concentration (IC50) in assay [3] (IC50 Gαo activation) was 256 nM; in assay [3] (pIC50 Gαo activation, mean±SEM), 257 nM; in assay [4], 166 nM.
For the molecule `CC(C)(C)c1ccc(S(=O)(=O)Nc2ccc(Cl)cc2-c2cncnc2N)cc1` [compound 12], the “increase in potency compared to 1, β-arrestin recruitment” value in assay [4] (12 versus 1) is “≈ 10 fold”. Further, the “inhibition of CCR2 (G protein activation)” value in assay [6] is “no inhibition”.

B1: CCL25: orthosteric CCR9 agonist (protein, UniProt O15444 24-150, looked up)
C-C motif chemokine 25: QGVFEDCCLAYHYPIGWAVLRRAWTYRIQEVSGSCNLPAAIFYLPKRHRKVCGNPKSREVQRAMKLLDARNKVFAKLHHNTQTFQAGPHAVKKLSSGNSKLSSSKFSNPISSSKRNVSLLISANSGL
For B1, the “effect on the binding of 3a to the IABS” value in assay [1] (3a 100 nM, prevented binding and displacement setup) is “did not affect the binding”.
